# Experimental data taken from publication PMC5247395 (EJNMMI Research, 2017).
# Experiments:
# PSMA = target: T1, PSMA (Homo sapiens, UniProt Q04609); assay: Saturation binding assay on PC-3 PIP cells (PSMA affinity, KD); conditions: for Kd: 30 min at 4 °C, saturation binding; for Relative PSMA-binding affinity: inverse molar ratio of average KD values, ^177Lu-PSMA-617 set to 1
# T1 construct: expressed in transfected cells; host or cells: PC-3 PIP cells (PSMA-positive subline of human PC-3 prostate cancer cells), provided by Prof; Martin Pomper, Johns Hopkins
# Method: Determination of the PSMA affinity was performed by saturation binding assays using PC-3 PIP cells and different concentrations of ^nat/44Sc-, ^nat/177Lu-, ^nat/68Ga-PSMA-617, or ^nat/68Ga-PSMA-11, respectively (Additional file 1).
# Determination of the KD values was performed by saturation binding assays using PSMA^pos PC-3 PIP cells. After successful radiolabeling of the PSMA ligands, a 2.5-fold molar excess of the corresponding cold metal was added and the reaction mixture was incubated for another 10 min at 95 °C. Quality control was performed again after reaction of the radioligands with the “cold” metal as described in the main manuscript.
# The cells were seeded in 48-well-plates (8 x 10^5 cells in 500 uL RPMI medium/well) allowing adhesion and growth overnight at 37 °C and 5% CO2. For the entire experiment, the well-plates were kept on ice. After removal of the supernatant, the cells were washed once with ice-cold PBS pH 7.4 prior to the addition of different concentrations (1 nM-2 µM) of either ^nat/44Sc-, ^nat/177Lu-, ^nat/67/68Ga-PSMA-617 or ^nat/67/68Ga-PSMA-11 in ice-cold RPMI medium without supplements. For the determination of non-specific binding, cell samples were incubated with 2-phosphonomethyl pentanedioic acid (2-PMPA, 200 μM). The well-plates were incubated for 30 min at 4 °C. Then, the supernatants were removed and the cells washed twice with ice-cold PBS followed by addition of NaOH (1 M, 600 µL) to each well. The cell suspensions were transferred to 4 mL tubes for measurement in a γ-counter (Wallac Wizard 1480, Perkin Elmer). The KD values were determined by plotting specific-binding (total binding minus unspecific binding) against the molar concentration of the added radioligands followed by nonlinear regression analysis using GraphPad Prism 7 software.
# [1] = n-octanol/PBS distribution coefficient (shake-flask); assay type: physicochemical; conditions: n-octanol/PBS pH 7.4, shake-flask
# Method: The distribution coefficients (logD values) of the radioligands were determined by a shake-flask method using liquid-liquid extraction followed by phase separation, as previously reported (Additional file 1). In brief, the PSMA ligands were labeled at a specific activity of 5 MBq/nmol. […] The vials were vortexed vigorously for 1 min and then centrifuged for 6 min for phase separation. The concentration of radioactivity in a defined volume of each layer was measured in a γ-counter (Perkin Elmer, Wallac Wizard 1480). The distribution coefficients were expressed as the logarithm of the ratio of counts per minute (cpm) measured in the n-octanol phase to the cpm measure in the PBS phase. The values are reported as the average of at least three independent measurements (± standard deviation, SD), each performed with five replicates. Data were analyzed for significance using a one-way ANOVA test (GraphPad Prism software, version 7). A p value of <0.05 was considered as statistically significant.
# [2] = tested on: PC-3 PIP/flu tumor-bearing mice; assay: Biodistribution in PC-3 PIP/flu tumor-bearing mice; conditions: i.v.; for PC-3 flu Tumor: PSMA^neg xenograft; for PC-3 PIP Tumor: PSMA^pos xenograft
# Method: In vivo experiments were approved by the local veterinarian department and conducted in accordance with the Swiss law of animal protection. All mice were obtained from Charles River Laboratories (Sulzfeld, Germany), at the age of 5–6 weeks. Female, athymic nude Balb/c mice were subcutaneously inoculated with PC-3 PIP cells (6 × 10^6 cells in 100 μL Hank’s balanced salt solution (HBSS) with Ca^2+/Mg^2+) on the right shoulder and with PC-3 flu cells (5 × 10^6 cells in 100 μL HBSS with Ca^2+/Mg^2+) on the left shoulder 2 weeks before the performance of the experiments.
# Mice were sacrificed at different time points post injection (p.i.) of the radioligands. Selected tissues and organs were collected, weighed and measured using a γ-counter. The results were decay-corrected and listed as a percentage of the injected activity per gram of tissue mass (% IA/g).
# T1 sequence (Q04609 whole entry): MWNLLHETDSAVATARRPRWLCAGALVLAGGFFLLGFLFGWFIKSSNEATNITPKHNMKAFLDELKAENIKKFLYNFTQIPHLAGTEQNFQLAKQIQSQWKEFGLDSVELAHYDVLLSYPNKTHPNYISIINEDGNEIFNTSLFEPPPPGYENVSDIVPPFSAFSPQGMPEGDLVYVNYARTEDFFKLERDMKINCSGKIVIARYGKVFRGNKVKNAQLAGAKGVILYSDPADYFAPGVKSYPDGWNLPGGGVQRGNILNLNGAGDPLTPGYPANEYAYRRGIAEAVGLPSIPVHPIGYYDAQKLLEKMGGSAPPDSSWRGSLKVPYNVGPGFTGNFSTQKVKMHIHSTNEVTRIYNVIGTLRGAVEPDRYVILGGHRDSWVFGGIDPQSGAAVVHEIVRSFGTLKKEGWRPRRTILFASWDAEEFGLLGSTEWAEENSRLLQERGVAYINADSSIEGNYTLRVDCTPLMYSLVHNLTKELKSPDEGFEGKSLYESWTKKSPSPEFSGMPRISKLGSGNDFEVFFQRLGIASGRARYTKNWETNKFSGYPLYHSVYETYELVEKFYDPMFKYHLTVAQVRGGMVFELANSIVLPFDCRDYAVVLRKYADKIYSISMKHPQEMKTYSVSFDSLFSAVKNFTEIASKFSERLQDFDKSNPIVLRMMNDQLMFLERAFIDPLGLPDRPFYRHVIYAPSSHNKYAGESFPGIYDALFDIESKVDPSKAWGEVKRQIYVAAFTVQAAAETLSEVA
smiles,measurement,setting,value
O=C([O-])CN1CCN(CC(=O)[O-])CCN(CC(=O)NCC2CCC(C(=O)NC(Cc3ccc4ccccc4c3)C(=O)NCCCCC(NC(=O)NC(CCC(=O)O)C(=O)O)C(=O)O)CC2)CCN(CC(=O)[O-])CC1.[68Ga+3] (centres unmarked) [^68Ga-PSMA-617],Kd,PSMA,72 ± 29 nM
same,Relative PSMA-binding affinity,PSMA,0.5
same,LogD values,[1],−4.30 ± 0.10
same,Blood,[2]; 15 min p.i.,6.88 ± 0.89 % IA/g
same,Bone,[2]; 15 min p.i.,1.72 ± 0.06 % IA/g
same,Heart,[2]; 15 min p.i.,2.61 ± 0.49 % IA/g
same,Intestines,[2]; 15 min p.i.,1.55 ± 0.19 % IA/g
same,Kidneys,[2]; 15 min p.i.,22.8 ± 0.81 % IA/g
same,Liver,[2]; 15 min p.i.,4.74 ± 0.43 % IA/g
same,Lung,[2]; 15 min p.i.,4.70 ± 0.09 % IA/g
same,Muscle,[2]; 15 min p.i.,1.53 ± 0.24 % IA/g
same,Salivary glands,[2]; 15 min p.i.,2.30 ± 0.37 % IA/g
same,Spleen,[2]; 15 min p.i.,3.92 ± 0.28 % IA/g
same,Stomach,[2]; 15 min p.i.,1.48 ± 0.09 % IA/g
same,PC-3 flu Tumor,[2]; 15 min p.i.,2.30 ± 0.18 % IA/g
same,PC-3 PIP Tumor,[2]; 15 min p.i.,28.7 ± 5.26 % IA/g
same,Blood,[2]; 30 min p.i.,3.46 ± 0.98 % IA/g
same,Bone,[2]; 30 min p.i.,1.00 ± 0.17 % IA/g
same,Heart,[2]; 30 min p.i.,1.47 ± 0.34 % IA/g
same,Intestines,[2]; 30 min p.i.,0.98 ± 0.28 % IA/g
same,Kidneys,[2]; 30 min p.i.,15.5 ± 3.46 % IA/g
same,Liver,[2]; 30 min p.i.,2.91 ± 0.65 % IA/g
same,Lung,[2]; 30 min p.i.,2.55 ± 0.51 % IA/g
same,Muscle,[2]; 30 min p.i.,0.80 ± 0.10 % IA/g
same,Salivary glands,[2]; 30 min p.i.,1.06 ± 0.23 % IA/g
same,Spleen,[2]; 30 min p.i.,2.50 ± 0.82 % IA/g
same,Stomach,[2]; 30 min p.i.,1.09 ± 0.40 % IA/g
same,PC-3 flu Tumor,[2]; 30 min p.i.,1.23 ± 0.35 % IA/g
same,PC-3 PIP Tumor,[2]; 30 min p.i.,48.5 ± 8.51 % IA/g
same,Blood,[2]; 2 h p.i.,0.14 ± 0.00 % IA/g
same,Bone,[2]; 2 h p.i.,0.09 ± 0.02 % IA/g
same,Heart,[2]; 2 h p.i.,0.09 ± 0.01 % IA/g
same,Intestines,[2]; 2 h p.i.,0.12 ± 0.03 % IA/g
same,Kidneys,[2]; 2 h p.i.,3.48 ± 0.18 % IA/g
same,Liver,[2]; 2 h p.i.,1.60 ± 0.05 % IA/g
same,Lung,[2]; 2 h p.i.,0.20 ± 0.00 % IA/g
same,Muscle,[2]; 2 h p.i.,0.05 ± 0.01 % IA/g
same,Salivary glands,[2]; 2 h p.i.,0.14 ± 0.03 % IA/g
same,Spleen,[2]; 2 h p.i.,0.91 ± 0.14 % IA/g
same,Stomach,[2]; 2 h p.i.,0.16 ± 0.11 % IA/g
same,PC-3 flu Tumor,[2]; 2 h p.i.,0.18 ± 0.03 % IA/g
same,PC-3 PIP Tumor,[2]; 2 h p.i.,55.8 ± 14.2 % IA/g
O=C([O-])CN1CCN(CC(=O)[O-])CCN(CC(=O)NCC2CCC(C(=O)N[C@@H](Cc3ccc4ccccc4c3)C(=O)NCCCC[C@H](NC(=O)N[C@@H](CCC(=O)O)C(=O)O)C(=O)O)CC2)CCN(CC(=O)[O-])CC1.[177Lu+3] (some centres unmarked) [^177Lu-PSMA-617],Kd,PSMA,39 ± 23 nM
same,Relative PSMA-binding affinity,PSMA,1.0
same,LogD values,[1],−4.18 ± 0.06
same,Blood,[2]; 15 min p.i.,7.28 ± 0.32 % IA/g
same,Bone,[2]; 15 min p.i.,2.03 ± 0.10 % IA/g
same,Heart,[2]; 15 min p.i.,2.87 ± 0.17 % IA/g
same,Intestines,[2]; 15 min p.i.,1.64 ± 0.12 % IA/g
same,Kidneys,[2]; 15 min p.i.,30.8 ± 4.52 % IA/g
same,Liver,[2]; 15 min p.i.,1.63 ± 0.27 % IA/g
same,Lung,[2]; 15 min p.i.,4.76 ± 0.55 % IA/g
same,Muscle,[2]; 15 min p.i.,1.78 ± 0.21 % IA/g
same,Salivary glands,[2]; 15 min p.i.,2.11 ± 0.19 % IA/g
same,Spleen,[2]; 15 min p.i.,2.85 ± 0.38 % IA/g
same,Stomach,[2]; 15 min p.i.,1.70 ± 0.12 % IA/g
same,PC-3 flu Tumor,[2]; 15 min p.i.,2.49 ± 0.45 % IA/g
same,PC-3 PIP Tumor,[2]; 15 min p.i.,32.3 ± 3.54 % IA/g
same,Blood,[2]; 30 min p.i.,3.05 ± 0.81 % IA/g
same,Bone,[2]; 30 min p.i.,1.07 ± 0.27 % IA/g
same,Heart,[2]; 30 min p.i.,1.32 ± 0.28 % IA/g
same,Intestines,[2]; 30 min p.i.,1.13 ± 0.45 % IA/g
same,Kidneys,[2]; 30 min p.i.,22.6 ± 1.78 % IA/g
same,Liver,[2]; 30 min p.i.,0.90 ± 0.15 % IA/g
same,Lung,[2]; 30 min p.i.,2.51 ± 0.44 % IA/g
same,Muscle,[2]; 30 min p.i.,0.75 ± 0.20 % IA/g
same,Salivary glands,[2]; 30 min p.i.,1.01 ± 0.27 % IA/g
same,Spleen,[2]; 30 min p.i.,1.55 ± 0.05 % IA/g
same,Stomach,[2]; 30 min p.i.,0.98 ± 0.35 % IA/g
same,PC-3 flu Tumor,[2]; 30 min p.i.,1.22 ± 0.32 % IA/g
same,PC-3 PIP Tumor,[2]; 30 min p.i.,47.0 ± 3.52 % IA/g
same,Bone,[2]; 2 h p.i.,0.12 ± 0.07 % IA/g
same,Heart,[2]; 2 h p.i.,0.06 ± 0.00 % IA/g
same,Intestines,[2]; 2 h p.i.,0.14 ± 0.06 % IA/g
same,Kidneys,[2]; 2 h p.i.,3.97 ± 0.56 % IA/g
same,Liver,[2]; 2 h p.i.,0.13 ± 0.02 % IA/g
same,Lung,[2]; 2 h p.i.,0.15 ± 0.03 % IA/g
same,Muscle,[2]; 2 h p.i.,0.04 ± 0.02 % IA/g
same,Salivary glands,[2]; 2 h p.i.,0.10 ± 0.03 % IA/g
same,Spleen,[2]; 2 h p.i.,0.21 ± 0.03 % IA/g
same,Stomach,[2]; 2 h p.i.,0.08 ± 0.02 % IA/g
same,PC-3 flu Tumor,[2]; 2 h p.i.,0.13 ± 0.01 % IA/g
same,PC-3 PIP Tumor,[2]; 2 h p.i.,45.8 ± 4.02 % IA/g
same,PC-3 flu Tumor,[2]; 4 h p.i.,0.08 ± 0.01 % IA/g
same,PC-3 PIP Tumor,[2]; 4 h p.i.,56.0 ± 8.0 % IA/g
same,Blood,[2]; 6 h p.i.,0.02 ± 0.00 % IA/g
same,Bone,[2]; 6 h p.i.,0.05 ± 0.01 % IA/g
same,Heart,[2]; 6 h p.i.,0.03 ± 0.00 % IA/g
same,Intestines,[2]; 6 h p.i.,0.03 ± 0.00 % IA/g
same,Kidneys,[2]; 6 h p.i.,2.47 ± 0.28 % IA/g
same,Liver,[2]; 6 h p.i.,0.09 ± 0.01 % IA/g
same,Lung,[2]; 6 h p.i.,0.06 ± 0.02 % IA/g
same,Muscle,[2]; 6 h p.i.,0.02 ± 0.01 % IA/g
same,Salivary glands,[2]; 6 h p.i.,0.04 ± 0.00 % IA/g
same,Spleen,[2]; 6 h p.i.,0.11 ± 0.01 % IA/g
same,Stomach,[2]; 6 h p.i.,0.05 ± 0.01 % IA/g
same,PC-3 flu Tumor,[2]; 6 h p.i.,0.06 ± 0.01 % IA/g
same,PC-3 PIP Tumor,[2]; 6 h p.i.,55.4 ± 1.67 % IA/g
